Experimental data as given in patent US20230416329A1, “A PEPTIDE WITH DISULFIDE BONDS AND INHIBITORY ACTIVITY AGAINST SERINE PROTEASES, DERIVED HYBRID PEPTIDES THEREOF, AND USES THEREOF” (INSTITUTE OF MATERIA MEDICA , CHINESE ACADEMY OF MEDICAL …, priority 2020, published 2023).
Read-outs that look alike come from different tables or passages of the source. Bridge positions count the residues as written; N and C are the ends. Square brackets hold non-standard residues; d marks the D form. Peptide text beside a SMILES is read from it. Hyp = O=C(O)[C@@H]1C[C@@H](O)CN1; Abu = CC[C@H](N)C(=O)O

Target: T1, bovine trypsin (Bos taurus, UniProt P00760)
T1 sequence (P00760 24-246): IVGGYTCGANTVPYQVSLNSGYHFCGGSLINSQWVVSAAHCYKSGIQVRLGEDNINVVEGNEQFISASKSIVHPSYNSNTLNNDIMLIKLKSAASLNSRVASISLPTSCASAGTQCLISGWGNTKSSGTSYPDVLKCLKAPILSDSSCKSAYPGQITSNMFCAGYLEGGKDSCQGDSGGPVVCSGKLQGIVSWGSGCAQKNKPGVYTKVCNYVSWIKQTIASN
Experiment: Trypsin inhibitory activity of peptides (BApNA hydrolysis, OD405; IC50, Ki, residual activity)
Assay type: biochemical
Conditions: for Ki: Ki=IC50/(1+S/Km), Km 0.33 mM, read-out: Ki; for IC50: trypsin 50 nM, BApNA 1.22 mM, read-out: IC50
Outline: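 Trypsin (50 nM final) preincubated with peptides at 37 °C in 50 mM Tris-HCl pH 7.8, 20 mM CaCl2; BApNA added (1.22 mM final), 260 min at 37 °C, then OD405 read. Residual activity from enzyme-only and substrate-only controls; IC50 fitted and converted to Ki via Ki=IC50/(1+S/Km), Km measured separately for BApNA.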

For `CC[C@H](C)[C@@H]1NC(=O)[C@@H]2CCCN2C(=O)[C@@H]2CCCN2C(=O)[C@H]([C@@H](C)CC)NC(=O)[C@H](CO)NC(=O)[C@H](CCCCN)NC(=O)[C@H]([C@@H](C)O)NC(=O)[C@H](Cc2c[nH]c3ccccc23)NC(=O)[C@H](CCCNC(=N)N)NC(=O)CNC(=O)[C@@H](N)CSSC[C@@H](C(=O)N[C@@H](Cc2ccccc2)C(=O)O)NC1=O` [BT57] (H-CGRWTKSIPPICF-OH; disulfide 1-12; C-terminus assumed), the “inhibitory activity against trypsin (in words)” value (“inhibitory activity” for short) was “excellent trypsin inhibitory activities”, the Ki was 30 nM and the IC50 was 130 nM.
With `CC[C@H](C)[C@@H]1NC(=O)[C@@H]2CCCN2C(=O)[C@@H]2CCCN2C(=O)[C@H]([C@@H](C)CC)NC(=O)[C@H](CO)NC(=O)[C@H](CCCCN)NC(=O)[C@H]([C@@H](C)O)NC(=O)[C@H](CCC(=O)O)NC(=O)[C@H](CCCNC(=N)N)NC(=O)CNC(=O)[C@@H](N)CSSC[C@@H](C(=O)N[C@@H](Cc2ccccc2)C(=O)O)NC1=O` [BT58] (H-CGRETKSIPPICF-OH; disulfide 1-12; N-terminus and C-terminus assumed) the Ki was 30 nM and the IC50 was 120 nM.
`CC[C@H](C)[C@@H]1NC(=O)[C@@H]2CCCN2C(=O)[C@@H]2CCCN2C(=O)[C@H]([C@@H](C)CC)NC(=O)[C@H](CO)NC(=O)[C@H](CCCCN)NC(=O)[C@H]([C@@H](C)O)NC(=O)CNC(=O)[C@H](CCCNC(=N)N)NC(=O)CNC(=O)[C@@H](N)CSSC[C@@H](C(=O)N[C@@H](Cc2ccccc2)C(=O)O)NC1=O` [BT60] (H-CGRGTKSIPPICF-OH; disulfide 1-12) was tested, and the “inhibitory activity” value was “excellent trypsin inhibitory activities” and the Ki was 90 nM.
Work on `CC[C@H](C)[C@@H]1NC(=O)[C@H](CO)NC(=O)[C@H](CCCNC(=N)N)NC(=O)[C@H]([C@@H](C)O)NC(=O)[C@@H](NC(=O)[C@@H](N)CCCNC(=N)N)CSSC[C@@H](C(=O)N[C@@H](Cc2c[nH]c3ccccc23)C(=O)O)NC(=O)[C@H](Cc2c[nH]cn2)NC(=O)[C@@H]2CCCN2C(=O)[C@@H]2CCCN2C1=O` [BT61] (H-RCTRSIPPHCW-OH; disulfide 2-10; N-terminus and C-terminus assumed) yielded a Ki of 190 nM.
Work on `CC[C@H](C)[C@@H]1NC(=O)[C@H](CO)NC(=O)[C@H](CCCCN)NC(=O)[C@H]([C@@H](C)O)NC(=O)[C@@H](NC(=O)[C@@H](N)CCCNC(=N)N)CSSC[C@@H](C(=O)N[C@@H](Cc2ccccc2)C(=O)O)NC(=O)[C@H](Cc2c[nH]cn2)NC(=O)[C@@H]2CCCN2C(=O)[C@@H]2CCCN2C1=O` [BT62] (H-RCTKSIPPHCF-OH; disulfide 2-10; N-terminus and C-terminus assumed) yielded a Ki of 10 nM and an IC50 of 70 nM.
For `CC[C@H](C)[C@@H]1NC(=O)[C@H](CO)NC(=O)[C@H](CCCCN)NC(=O)[C@H]([C@@H](C)O)NC(=O)[C@@H](NC(=O)[C@@H](N)CCCNC(=N)N)CSSC[C@@H](C(=O)N[C@@H](Cc2c[nH]cn2)C(=O)O)NC(=O)[C@H](CCC(N)=O)NC(=O)[C@@H]2CCCN2C(=O)[C@@H]2CCCN2C1=O` [BT63] (H-RCTKSIPPQCH-OH; disulfide 2-10; N-terminus and C-terminus assumed), the Ki was 20 nM and the IC50 was 90 nM.
With `CC(C)C[C@@H]1NC(=O)[C@H](CO)NC(=O)[C@H](CCCCN)NC(=O)[C@H]([C@@H](C)O)NC(=O)[C@@H](NC(=O)[C@@H](N)CCCNC(=N)N)CSSC[C@@H](C(=O)N[C@@H](CO)C(=O)O)NC(=O)[C@H](CCC(N)=O)NC(=O)[C@@H]2CCCN2C(=O)[C@@H]2CCCN2C1=O` [BT65] (H-RCTKSLPPQCS-OH; disulfide 2-10; C-terminus assumed) the “inhibitory activity” value was “excellent trypsin inhibitory activities” and the Ki was 130 nM.
`CC[C@H](C)[C@@H]1NC(=O)[C@@H]2CCCN2C(=O)[C@@H]2CCCN2C(=O)[C@H]([C@@H](C)CC)NC(=O)[C@H](CO)NC(=O)[C@H](CCCCN)NC(=O)[C@H]([C@@H](C)O)NC(=O)[C@H](C)NC(=O)[C@H](CCCNC(=N)N)NC(=O)[C@@H]2CCCN2C(=O)[C@@H](N)CSSC[C@@H](C(=O)N[C@@H](Cc2ccccc2)C(=O)O)NC1=O` [BT66] (H-CPRATKSIPPICF-OH; disulfide 1-12; C-terminus assumed) was tested, and the “inhibitory activity” value was “higher trypsin inhibitory activities”, the Ki was 10 nM and the “inhibitory activity” value (listed as SEQ ID NO: 66) was “excellent trypsin inhibitory activities”. The Residual trypsin activity (peptide 0.000098 μM) was 107.0 ± 6.2%, the Residual trypsin activity (peptide 0.00098 μM) was 104.7 ± 2.1% and the Residual trypsin activity (peptide 0.0098 μM) was 106.2 ± 3.4%. It also gave a Residual trypsin activity (peptide 0.0488 μM) of 66.8 ± 8.2%, a Residual trypsin activity (peptide 0.0585 μM) of 55.7 ± 2.4% and a Residual trypsin activity (peptide 0.0780 μM) of 13.9 ± 4.2%. The Residual trypsin activity (peptide 0.098 μM) was 4.8 ± 0.7%, the Residual trypsin activity (peptide 0.98 μM) was 0.1 ± 0.0% and the Residual trypsin activity (peptide 9.76 μM) was 0.1 ± 0.0%. It also gave an IC50 of 60 nM.
`CC[C@H](C)[C@@H]1NC(=O)[C@@H]2CCCN2C(=O)[C@@H]2CCCN2C(=O)[C@H]([C@@H](C)CC)NC(=O)[C@H](CO)NC(=O)[C@H](CCCCN)NC(=O)[C@H]([C@@H](C)O)NC(=O)[C@H](C)NC(=O)[C@H](CCCNC(=N)N)NC(=O)[C@H](C)NC(=O)[C@@H](N)CSSC[C@@H](C(=O)N[C@@H](Cc2ccccc2)C(=O)O)NC1=O` [BT67] (H-CARATKSIPPICF-OH; disulfide 1-12) was tested, and the “inhibitory activity” value was “higher trypsin inhibitory activities”, the Ki was 10 nM and the “inhibitory activity” value (listed as SEQ ID NO: 67) was “excellent trypsin inhibitory activities”. The Residual trypsin activity (peptide 0.000098 μM) was 107.0 ± 5.5%, the Residual trypsin activity (peptide 0.00098 μM) was 104.4 ± 3.9% and the Residual trypsin activity (peptide 0.0098 μM) was 102.0 ± 2.4%. It also gave a Residual trypsin activity (peptide 0.0488 μM) of 49.6 ± 2.8%, a Residual trypsin activity (peptide 0.0585 μM) of 39.9 ± 1.7% and a Residual trypsin activity (peptide 0.07317 μM) of 8.1 ± 2.5%. For the same compound, the Residual trypsin activity (peptide 0.098 μM) was 1.5 ± 0.3%, the Residual trypsin activity (peptide 0.98 μM) was 0.1 ± 0.2% and the Residual trypsin activity (peptide 9.76 μM) was 0.1 ± 0.1%. It also gave an IC50 of 50 nM.
`CC[C@H](C)[C@@H]1NC(=O)[C@@H]2CCCN2C(=O)[C@@H]2C[C@@H](O)CN2C(=O)[C@H]([C@@H](C)CC)NC(=O)[C@H](CO)NC(=O)[C@H](CCCCN)NC(=O)[C@H]([C@@H](C)O)NC(=O)[C@H](C)NC(=O)[C@H](CCCNC(=N)N)NC(=O)[C@H](C)NC(=O)[C@@H](N)CSSC[C@@H](C(=O)N[C@@H](Cc2ccccc2)C(=O)O)NC1=O` [BT69] (H-CARATKSI[Hyp]PICF-OH; disulfide 1-12; C-terminus assumed) was tested, and the “inhibitory activity” value was “excellent trypsin inhibitory activities”, the Ki was 10 nM and the IC50 was 60 nM.
For `CC[C@H](C)[C@@H]1NC(=O)[C@@H]2C[C@@H](O)CN2C(=O)[C@@H]2CCCN2C(=O)[C@H]([C@@H](C)CC)NC(=O)[C@H](CO)NC(=O)[C@H](CCCCN)NC(=O)[C@H]([C@@H](C)O)NC(=O)[C@H](C)NC(=O)[C@H](CCCNC(=N)N)NC(=O)[C@H](C)NC(=O)[C@@H](N)CSSC[C@@H](C(=O)N[C@@H](Cc2ccccc2)C(=O)O)NC1=O` [BT70] (H-CARATKSIP[Hyp]ICF-OH; disulfide 1-12; C-terminus assumed), the “inhibitory activity” value was “excellent trypsin inhibitory activities” and the Ki was 30 nM.
`CC[C@H](C)[C@@H]1NC(=O)[C@@H]2CCCN2C(=O)[C@@H]2CCCN2C(=O)[C@H]([C@@H](C)CC)NC(=O)[C@H](CO)NC(=O)[C@H](CCCCN)NC(=O)[C@H]([C@@H](C)O)NC(=O)[C@H](C)NC(=O)[C@H](CCCNC(=N)N)NC(=O)[C@H](C(C)C)NC(=O)[C@@H](N)CSSC[C@@H](C(=O)N[C@@H](Cc2ccccc2)C(=O)O)NC1=O` [BT71] (H-CVRATKSIPPICF-OH; disulfide 1-12; N-terminus and C-terminus assumed) was tested, and the “inhibitory activity” value was “excellent trypsin inhibitory activities”, the Ki was 20 nM and the IC50 was 110 nM.
In the case of `CC[C@H](C)[C@@H]1NC(=O)[C@@H]2CCCN2C(=O)[C@@H]2CCCN2C(=O)[C@H]([C@@H](C)CC)NC(=O)[C@H](CO)NC(=O)[C@H](CCCCN)NC(=O)[C@H]([C@@H](C)O)NC(=O)[C@H](C)NC(=O)[C@H](CCCNC(=N)N)NC(=O)[C@H](CC(C)C)NC(=O)[C@@H](N)CSSC[C@@H](C(=O)N[C@@H](Cc2ccccc2)C(=O)O)NC1=O` [BT72] (H-CLRATKSIPPICF-OH; disulfide 1-12; N-terminus and C-terminus assumed), the Ki is reported as 30 nM and the IC50 is reported as 130 nM.
`CC[C@H](C)[C@@H]1NC(=O)[C@@H](N)CSSC[C@@H](C(=O)N[C@@H](Cc2ccccc2)C(=O)O)NC(=O)[C@H]([C@@H](C)CC)NC(=O)[C@@H]2CCCN2C(=O)[C@@H]2CCCN2C(=O)[C@H]([C@@H](C)CC)NC(=O)[C@H](CO)NC(=O)[C@H](CCCCN)NC(=O)[C@H]([C@@H](C)O)NC(=O)[C@H](C)NC(=O)[C@H](CCCNC(=N)N)NC1=O` [BT73] (H-CIRATKSIPPICF-OH; disulfide 1-12; N-terminus and C-terminus assumed) was tested, and the Ki was 30 nM and the IC50 was 120 nM.
With `CC[C@@H]1NC(=O)[C@@H](N)CSSC[C@@H](C(=O)N[C@@H](Cc2ccccc2)C(=O)O)NC(=O)[C@H]([C@@H](C)CC)NC(=O)[C@@H]2CCCN2C(=O)[C@@H]2CCCN2C(=O)[C@H]([C@@H](C)CC)NC(=O)[C@H](CO)NC(=O)[C@H](CCCCN)NC(=O)[C@H]([C@@H](C)O)NC(=O)[C@H](C)NC(=O)[C@H](CCCNC(=N)N)NC1=O` [BT74] (H-C[Abu]RATKSIPPICF-OH; disulfide 1-12; N-terminus and C-terminus assumed) the “inhibitory activity” value was “excellent trypsin inhibitory activities”, the Ki was 20 nM and the IC50 was 90 nM.
